Experiments:
[1] = test system: hematological malignancies and solid tumors; settings: Chao M P et al., 2016; cited from earlier work
[2] = test system: acute myelocytic leukemia (AML) HL-60 cells; assay: ADCP: phagocytosis of HL-60 cells by HPMMs, combination with azacitidine; format: cell-based, human; settings: HPMMs effector, HL-60 target cells treated with azacitidine 3 μM or 1 μM for 24 h; antibodies 10 μg/mL and 1 μg/mL; FIG. 2
Text: Materials: Azacitidine (purchased from Baxter Oncology GmbH); Hu5F9-G4 (supplied by Akeso Biopharma, Inc.); Raji cells (Chinese Academy of Sciences Shanghai Branch); HL-60 cells (ATCC); RPMI 1640 (Gibco, Cat. No: 22400-105); pancreatin (0.25% Typsin-EDTA (1×)) (Gibco, Cat. No: 25200072); fetal bovine serum (FBS; Excell bio, Cat. No: FSP500); fluorescent dye […] diacetatesuccinimidyl ester (CFSE; Biolegend, Cat. No: 423801); recombinant human macrophage colony-stimulating factor (human M-CSF; PeproTech, Cat. No: 300-25); APC anti-human CD11c antibody (Biolegend, Cat. No: 301614); isotype control (human IgG4; supplied by Akeso Biopharma, Inc.); rituximab (Roche); BSA (Sigma, Cat. No: V900933-1KG); Ficoll paque plus (GE, Cat. No: 17-1440-02). Human peripheral monocyte-derived macrophages (HPMMs) were prepared by inducing PBMCs. Frozen PBMCs were conventionally thawed and incubated in an incubator overnight. […]
Procedures: HL-60 cells were conventionally collected and plated in a 6-well plate at 4×10^5 cells/2 mL of 1640 complete medium per well. […] The next day, the treated and blank HL-60 cells were collected, centrifuged at 170×g for 5 min, resuspended and counted. Then the cells were analyzed for viability and washed once with PBS. […]

[3] = test system: CT26-hCD47 cells (mouse colon cancer cells); assay: CT26-hCD47 tumor model in BALB/c-hPD1/hSIRPα mice, tumor volume; format: in vivo; settings: 6F7H1L1(hG4) 5 mg/kg, cadonilimab 0.5 mg/kg, intraperitoneally twice per week for 4 weeks, 7 doses; vs isotype control hIgG4; FIG. 9
Text: (§1) In order to determine the tumor inhibitory activity in vivo of 6F7H1L1(hG4) antibody in combination with anti-PD-1/anti-CTLA-4 bispecific antibody cadonilimab, female BALB/c-hPD1I/hSIRPα mice aged 6.43-8.43 weeks (purchased from GemPharmatech Co., Ltd.) were grafted subcutaneously with CT26-hCD47 cells (mouse colon cancer cells, purchased from GemPharmatech Co., Ltd.). When the mean tumor volume reached 80-120 mm^3, the mice were randomized into 4 groups of 6 by tumor volume. The day of grouping was defined as D0, and dosing was started on the day of grouping D0. The regimen of the combination therapy group is as follows: the drugs were formulated separately and administered sequentially (no certain order or time interval was required, and one treatment should be given after the completed administration of the other). After the administration, the length and width of tumors in each group were measured, and the tumor volume was calculated. The data were subjected to an independent sample T-test, SPSS 17.0 *P<0.05, **P<0.01.

[4] = test system: human Burkitt's lymphoma Raji-PDL1 cells; assay: Immune cell activation: PBMCs co-cultured with Raji-PDL1 cells, cytokine ELISA; format: cell-based; settings: SEB-activated PBMCs + MMC-treated Raji-PDL1 cells, 3 days; FIG. 3
[5] = CT26-hCD47 tumor model, tolerability and body weight; format: in vivo; settings: 6F7H1L1(hG4) 5 mg/kg, cadonilimab 0.5 mg/kg, i.p.; FIG. 10
Text: as §1

[6] = test system: Raji cells; assay: ADCP: phagocytosis of Raji cells by HPMMs, combination with obinutuzumab; format: cell-based, human; settings: HPMMs effector, Raji target cells, 37° C. 2 h; FIG. 8
Experimental: PBMCs (prepared by Akeso Biopharma, Inc., Lot No: 20201126-G) were thawed and incubated with 1640 complete medium+10% FBS (Excell bio, Cat. No: FSP500, Lot No: 11I025) overnight. The next day, the medium was changed to 1640 complete medium+2% FBS, and the cells were incubated with the medium for 2 h. The supernatant was removed, and the cells were washed twice with PBS and incubated in an incubator (90% 1640+10% FBS+M-CSF-100 ng/mL) to induce […] (HPMMs). The medium was exchanged and the treatment was given on days 3 and 5. The experiment was performed on day 7 of induction.
Raji cells (purchased from ATCC) were conventionally collected and washed once with PBS. CFSE was diluted to 2.5 μM with PBS. The cells were resuspended in a proper amount of the diluted CFSE to a staining density of 1×10^7 cells/mL and incubated in an incubator for 20 min. 6 mL of 1640 complete medium (containing 10% FBS) was added to stop staining. The cells were centrifuged at 170×g for 5 min, and the supernatant was discarded. 1 mL of 1640 complete medium was added, and the cells were incubated in an incubator for 10 min with the cell density adjusted to 3×10^6 cells/mL. […] 200 μL of 1% PBSA was added to each tube for resuspension, and the cells were transferred to a flow cytometry tube and detected.

Hu5F9-G4: anti-CD47 monoclonal antibody drug, positive control; heavy chain SEQ ID NO: 85, light chain SEQ ID NO: 86
inhibition of growth and metastasis of tumors in preclinical studies [1]: effectively inhibits the growth and metastasis of hematological malignancies and solid tumors
phagocytic index (ADCP) [2]: significantly higher than those of the blank control and the isotype control (human IgG4)

cadonilimab: anti-PD-1/CTLA-4 bispecific antibody; heavy chain SEQ ID NO: 78, light chain SEQ ID NO: 80 [reference compound]
inhibition of tumor growth (tumor volume) [3]: can effectively inhibit the growth of tumors in mice
secretion of IFN-γ in PBMCs [4]: can significantly stimulate the secretion of IFN-γ
tolerability in tumor-bearing mice [5]: well tolerated

obinutuzumab: anti-human CD20 antibody [reference compound]
phagocytic index (ADCP) [6]: significantly higher than those of the blank control and the isotype controls (human IgG4 and human IgG1)

Source: patent US20240043531A1, “ANTI-CD47 MONOCLONAL ANTIBODY AND USE THEREOF” (Akeso Biopharma, Inc., priority 2021, published 2024)
